# Measured values reported in ChEMBL document CHEMBL4433250, “Structure-based design of potent linear peptide inhibitors of the YAP-TEAD protein-protein interaction derived from the YAP omega-loop sequence” (Bioorg Med Chem Lett, 2019).
# Active and inactive are the calls of the source. No cut-off for these calls is given here. Where a SMILES comes first, the peptide text is derived from it. [ ]: non-standard residue; d: D form. Trp(6-Cl) = N[C@@H](Cc1c[nH]c2cc(Cl)ccc12)C(=O)O; Phe(3-F) = N[C@@H](Cc1cccc(F)c1)C(=O)O; 1Nal = N[C@@H](Cc1cccc2ccccc12)C(=O)O; Hyp = O=C(O)[C@@H]1C[C@@H](O)CN1; Cba = N[C@@H](CC1CCC1)C(=O)O; Nle = CCCC[C@H](N)C(=O)O; Ac3c = NC1(C(=O)O)CC1
# Biological target: T1, Transcriptional enhancer factor TEF-3 (Homo sapiens, UniProt Q15561)
# T1 sequence (Q15561 whole entry): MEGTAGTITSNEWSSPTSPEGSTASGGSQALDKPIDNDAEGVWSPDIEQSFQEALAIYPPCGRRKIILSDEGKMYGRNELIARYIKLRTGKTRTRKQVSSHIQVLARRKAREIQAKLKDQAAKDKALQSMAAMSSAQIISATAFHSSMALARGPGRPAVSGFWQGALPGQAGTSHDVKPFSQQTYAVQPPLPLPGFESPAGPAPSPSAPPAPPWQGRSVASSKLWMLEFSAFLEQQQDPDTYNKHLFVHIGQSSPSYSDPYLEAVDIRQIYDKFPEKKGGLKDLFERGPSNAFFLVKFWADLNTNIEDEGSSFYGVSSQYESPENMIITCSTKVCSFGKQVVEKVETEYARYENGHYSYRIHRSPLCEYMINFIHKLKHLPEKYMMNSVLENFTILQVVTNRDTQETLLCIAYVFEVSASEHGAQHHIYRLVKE
# Experiment: Inhibition of TEAD4 in human SF268 ::MCAT-Luc RGA model cells up to 20 uM by YAP/TEAD-dependent luciferase reporter gene assay
row,inhibition,Molecule
1,inactive,CC(C)C[C@H](NC(=O)[C@H](CCCNC(=N)N)NC(=O)[C@H](Cc1c[nH]c2cc(Cl)ccc12)NC(=O)[C@@H]1CCCN1)C(=O)N[C@@H](CCCNC(=N)N)C(=O)N[C@@H](CCCCN)C(=O)N[C@@H](CC1CCC1)C(=O)N1C[C@H](O)C[C@H]1C(=O)N[C@@H](CC(=O)O)C(=O)N[C@@H](CO)C(=O)N[C@@H](Cc1ccccc1)C(=O)N[C@@H](Cc1cccc2ccccc12)C(=O)N[C@@H](CCCCN)C(=O)N[C@@H](CCC(=O)O)C(=O)N1CCC[C@H]1C(=O)O (H-P[Trp(6-Cl)]RLRK[Cba][Hyp]DSF[1Nal]KEP-OH)

# Biological target: T1, Transcriptional enhancer factor TEF-3
# Experiment: Inhibition of human TEAD4 (217 to 434 residues) expressed in Escherichia coli BL21 (DE3) interaction with N-biotinylated YAP (60 to 100 residues) incubated for 2 hrs by TR-FRET assay
row,Molecule,IC50
1,CC(C)C[C@H](NC(=O)[C@H](CCCNC(=N)N)NC(=O)[C@H](Cc1c[nH]c2cc(Cl)ccc12)NC(=O)[C@@H]1CCCN1)C(=O)N[C@@H](CCCNC(=N)N)C(=O)N[C@@H](CCCCN)C(=O)N[C@@H](CC(C)C)C(=O)N1CCC[C@H]1C(=O)N[C@@H](CC(=O)O)C(=O)N[C@@H](CO)C(=O)N[C@@H](Cc1ccccc1)C(=O)N[C@@H](Cc1ccccc1)C(=O)N[C@@H](CCCCN)C(=O)N1CCC[C@H]1C(=O)N1CCC[C@H]1C(=O)O (H-P[Trp(6-Cl)]RLRKLPDSFFKPP-OH),5.83 µM
2,CCCC[C@H](NC(=O)[C@@H]1CCCN1)C(=O)N[C@@H](CCCNC(=N)N)C(=O)N[C@@H](CC(C)C)C(=O)N[C@@H](CCCNC(=N)N)C(=O)N[C@@H](CCCCN)C(=O)N[C@@H](CC(C)C)C(=O)N1CCC[C@H]1C(=O)N[C@@H](CC(=O)O)C(=O)N[C@@H](CO)C(=O)N[C@@H](Cc1ccccc1)C(=O)N[C@@H](Cc1ccccc1)C(=O)N[C@@H](CCCCN)C(=O)N1CCC[C@H]1C(=O)N1CCC[C@H]1C(=O)O (H-P[Nle]RLRKLPDSFFKPP-OH),67.7 µM
3,H-PWRLRKLPDSFFKPP-OH,24.2 µM
4,CCCC[C@H](NC(=O)[C@H](CCCCN)NC(=O)[C@H](CCCNC(=N)N)NC(=O)[C@H](CC(C)C)NC(=O)[C@H](CCCNC(=N)N)NC(=O)[C@H](Cc1c[nH]c2cc(Cl)ccc12)NC(=O)[C@@H]1CCCN1)C(=O)N1CCC[C@H]1C(=O)N[C@@H](CC(=O)O)C(=O)N[C@@H](CO)C(=O)N[C@@H](Cc1cccc(F)c1)C(=O)N[C@@H](Cc1ccccc1)C(=O)N[C@@H](CCCCN)C(=O)N1CCC[C@H]1C(=O)N1CCC[C@H]1C(=O)O (H-P[Trp(6-Cl)]RLRK[Nle]PDS[Phe(3-F)]FKPP-OH),2.4 µM
5,H-PMRLRKLPDSFFKPP-OH,70 µM

# Now those with a lower IC50, led by results:
row,IC50,Molecule
1,1.56 µM,CCCC[C@H](NC(=O)[C@H](CCCCN)NC(=O)[C@H](CCCNC(=N)N)NC(=O)[C@H](CC(C)C)NC(=O)[C@H](CCCNC(=N)N)NC(=O)[C@H](Cc1c[nH]c2cc(Cl)ccc12)NC(=O)[C@@H]1CCCN1)C(=O)N1CCC[C@H]1C(=O)N[C@@H](CC(=O)O)C(=O)N[C@@H](CO)C(=O)N[C@@H](Cc1ccccc1)C(=O)N[C@@H](Cc1ccccc1)C(=O)N[C@@H](CCCCN)C(=O)N1CCC[C@H]1C(=O)N1CCC[C@H]1C(=O)O (H-P[Trp(6-Cl)]RLRK[Nle]PDSFFKPP-OH)
2,0.409 µM,CCCC[C@H](NC(=O)[C@H](CCCCN)NC(=O)[C@H](CCCNC(=N)N)NC(=O)[C@H](CC(C)C)NC(=O)[C@H](CCCNC(=N)N)NC(=O)[C@H](Cc1c[nH]c2cc(Cl)ccc12)NC(=O)[C@@H]1CCCN1)C(=O)N1CCC[C@H]1C(=O)N[C@@H](CC(=O)O)C(=O)N[C@@H](CO)C(=O)N[C@@H](Cc1ccccc1)C(=O)N[C@@H](Cc1cccc2ccccc12)C(=O)N[C@@H](CCCCN)C(=O)N1CCC[C@H]1C(=O)N1CCC[C@H]1C(=O)O (H-P[Trp(6-Cl)]RLRK[Nle]PDSF[1Nal]KPP-OH)
3,0.216 µM,CC(C)C[C@H](NC(=O)[C@H](CCCNC(=N)N)NC(=O)[C@H](Cc1c[nH]c2cc(Cl)ccc12)NC(=O)[C@@H]1CCCN1)C(=O)N[C@@H](CCCNC(=N)N)C(=O)N[C@@H](CCCCN)C(=O)N[C@@H](CC1CCC1)C(=O)N1CCC[C@H]1C(=O)N[C@@H](CC(=O)O)C(=O)N[C@@H](CO)C(=O)N[C@@H](Cc1ccccc1)C(=O)N[C@@H](Cc1cccc2ccccc12)C(=O)N[C@@H](CCCCN)C(=O)N1CCC[C@H]1C(=O)N1CCC[C@H]1C(=O)O (H-P[Trp(6-Cl)]RLRK[Cba]PDSF[1Nal]KPP-OH)
4,0.045 µM,CC(C)C[C@H](NC(=O)[C@H](CCCNC(=N)N)NC(=O)[C@H](Cc1c[nH]c2cc(Cl)ccc12)NC(=O)[C@@H]1CCCN1)C(=O)N[C@@H](CCCNC(=N)N)C(=O)N[C@@H](CCCCN)C(=O)N[C@@H](CC1CCC1)C(=O)N1CCC[C@H]1C(=O)N[C@@H](CC(=O)O)C(=O)N[C@@H](CO)C(=O)N[C@@H](Cc1ccccc1)C(=O)N[C@@H](Cc1cccc2ccccc12)C(=O)N[C@@H](CCCCN)C(=O)N[C@@H](CCC(=O)O)C(=O)N1CCC[C@H]1C(=O)O (H-P[Trp(6-Cl)]RLRK[Cba]PDSF[1Nal]KEP-OH)
5,0.016 µM,CC(C)C[C@H](NC(=O)[C@H](CCCNC(=N)N)NC(=O)[C@H](Cc1c[nH]c2cc(Cl)ccc12)NC(=O)[C@@H]1CCCN1)C(=O)N[C@@H](CCCNC(=N)N)C(=O)N[C@@H](CCCCN)C(=O)N[C@@H](CC1CCC1)C(=O)N1C[C@H](O)C[C@H]1C(=O)N[C@@H](CC(=O)O)C(=O)N[C@@H](CO)C(=O)N[C@@H](Cc1ccccc1)C(=O)N[C@@H](Cc1cccc2ccccc12)C(=O)N[C@@H](CCCCN)C(=O)N[C@@H](CCC(=O)O)C(=O)N1CCC[C@H]1C(=O)O (H-P[Trp(6-Cl)]RLRK[Cba][Hyp]DSF[1Nal]KEP-OH)
6,0.009 µM,N=C(N)NCCC[C@H](NC(=O)[C@H](Cc1c[nH]c2cc(Cl)ccc12)NC(=O)[C@@H]1CCCN1)C(=O)NC1(C(=O)N[C@@H](CCCNC(=N)N)C(=O)N[C@@H](CCCCN)C(=O)N[C@@H](CC2CCC2)C(=O)N2C[C@H](O)C[C@H]2C(=O)N[C@@H](CC(=O)O)C(=O)N[C@@H](CO)C(=O)N[C@@H](Cc2ccccc2)C(=O)N[C@@H](Cc2cccc3ccccc23)C(=O)N[C@@H](CCCCN)C(=O)N[C@@H](CCC(=O)O)C(=O)N2CCC[C@H]2C(=O)O)CC1 (H-P[Trp(6-Cl)]R[Ac3c]RK[Cba][Hyp]DSF[1Nal]KEP-OH)

# Biological target: T1, Transcriptional enhancer factor TEF-3
# Experiment: Binding affinity to Avi-tagged human TEAD4 (217 to 434 residues) expressed in Escherichia coli BL21 (DE3) by SPR assay
row,Kd,Molecule
1,0.025 µM,CC(C)C[C@H](NC(=O)[C@H](CCCNC(=N)N)NC(=O)[C@H](Cc1c[nH]c2cc(Cl)ccc12)NC(=O)[C@@H]1CCCN1)C(=O)N[C@@H](CCCNC(=N)N)C(=O)N[C@@H](CCCCN)C(=O)N[C@@H](CC1CCC1)C(=O)N1C[C@H](O)C[C@H]1C(=O)N[C@@H](CC(=O)O)C(=O)N[C@@H](CO)C(=O)N[C@@H](Cc1ccccc1)C(=O)N[C@@H](Cc1cccc2ccccc12)C(=O)N[C@@H](CCCCN)C(=O)N[C@@H](CCC(=O)O)C(=O)N1CCC[C@H]1C(=O)O (H-P[Trp(6-Cl)]RLRK[Cba][Hyp]DSF[1Nal]KEP-OH)
